In general, IC50 refers to the concentration that inhibits the measured activity by half. High values mean a need for much substance, low ones inhibition by little substance.

≈ marks a conversion by molar mass, not a printed value. Entries after “also recorded” stand apart in the source; their conditions may differ.

In data set [1] the test system is platelet aggregation (AA). As to the kind of experiment: Inhibitory action against platelet aggregation, inducer arachidonic acid (AA). The following applies: for IC50: Oryctolagus cuniculus, Platelet, AA 150 μM, rabbit PRP; for IC50 AA 150 μM: Table 2, rabbit PRP. Format: cell-based. How it is done:
(§1) Inhibitory Action against Platelet Aggregation:
(§2) (1) Materials and Method:
(§3) The sample is tested after dissolved in dimethyl sulfoxide. The preparation is conducted so as to make the final concentration of the solvent 1%. Dimethyl sulfoxide of the same concentration is used as a control. As to inducers for platelet aggregation, ADP (final concentration: 5 μm), AA (arachidonic acid) (final concentration: 150 μM) and collagen (final concentration: 10 μg/ml) are used.
(§4) (2) Preparation of platelet:
(§5) Blood is taken from total neck artery of male rabbits of 2.0-2.5 kg body weight. To the blood is added 1/10 volume of 3.8% sodium citrate solution, the mixture is gently stirred, centrifuged 1300×g for 2 minutes, and the resulting supernatant liquid is used as plasma with abundant platelet (hereinafter abbreviated as PRP). The precipitate is further centrifuged at 1600×g for 10 minutes and the resulting supernatant liquid is used as plasma with poor platelet (hereinafter abbreviated as PPP).
(§6) (3) Method for Measuring Aggregation Power:
(§7) A measuring apparatus for platelet aggregation is used and the changes in absorbancy by the aggregation with an elapse of time are recorded.
(§8) Thus, 200 microliters of PRP is taken, its difference between PPP is adjusted to a certain value, then 25 microliters of control solution or test solution is added, the mixture is stirred (1000 rpm) for 1 minutes, 25 microliters of aggregation inducer is added, and the changes in absorbancy are recorded. The inhibitory ratio is calculated from the following expression from the maximum aggregation ratio of the control (A in %) and that of the test solution (B in %): [formula]
(§9) Inhibitory ratios with varied test solution concentrations are calculated and the IC50 (50% inhibitory concentration) is calculated therefrom.
(§10) The sample is tested after dissolved in dimethyl sulfoxide. The preparation is conducted so as to make the final concentration of the solvent 1%. Dimethyl sulfoxide of the same concentration is used as a control. As to inducers for platelet aggregation, ADP (final concentration: 5 μM), AA (arachidonic acid) (final concentration: 150 μM) and collagen (final concentration: 10 μg/ml) are used.
(§11) Blood is taken from total neck artery of male rabbits of 2.0-2.5 kg body weight. To the blood is added 1/10 volume of 3.8% citric acid solution, the mixture is gently stirred, centrifuged 1300×g for 2 minutes, and the resulting supernatant liquid is used as plasma with abundant platelet (hereinafter abbreviated as PRP). The precipitate is further centrifuged at 1600×g for 10 minutes and the resulting supernatant liquid is used as plasma with poor platelet (hereinafter abbreviated as PPP).
(§12) Thus, 200 microliters of PRP is taken, its difference between PPP is adjusted to a certain value, then 25 microliters of control solution or test solution is added, the mixture is stirred (1000 rpm) for 1 minute, 25 microliters of aggregation inducer is added, and the changes in absorbancy are recorded. The inhibitory ratio is calculated from the following expression from the maximum aggregation ratio of the control (A in %) and that of the test solution (B in %): [formula]

The test system of data set [2] is platelet aggregation (ADP). As to the kind of experiment: Inhibitory action against platelet aggregation, inducer ADP. Format: cell-based. The following applies: for IC50: Oryctolagus cuniculus, Platelet, ADP 5 μM, rabbit PRP; for IC50 ADP 5 μM: Table 2, rabbit PRP. How it is done:
as §1, §2, §3, §4, §5, §6, §7, §8, §9, §10, §11, §12

For data set [3], the system named is platelet aggregation (collagen). As to the kind of experiment: Inhibitory action against platelet aggregation, inducer collagen. The following applies: for IC50: Oryctolagus cuniculus, Platelet, collagen 10 μg/ml, rabbit PRP; for IC50 Collagen 10 μg/ml: Table 2, rabbit PRP. Format: cell-based. How it is done: as §1, §2, §3, §4
Blood is taken from total neck artery of male rabbits of 2.0-2.5 kg body weight. […] The precipitate is further centrifuged at 1600×g for 10 minutes and the resulting supernatant liquid is used as plasma with poor platelet (hereinafter abbreviated as PPP).
as §6, §7, §8, §10, §11, §12

Data set [4] can be described thus: Solubility. The following applies: qualitative, in named solvents. Format: physicochemical.

`CC1OC(OC2CCC(OC3CCC(OC(=O)c4ccc(Cl)cc4)OC3C)OC2C)CCC1=O` (stereo not shown) [SEN-366-CB2]: the IC50 is 6.2 µg/mL (≈ 12.5 µM) in data set [1] (Table 2), 3.2 µg/mL (≈ 6.44 µM) in data set [2] (Table 2) and 1 µg/mL (≈ 2.01 µM) in data set [3] (Table 2).

In the case of `CC1OC(OC2CCC(OC3CCC(OC(=O)c4ccc(Cl)cc4)OC3C)OC2C)C=CC1=O` (stereo not shown) [SEN-366-CB3], the “IC50 AA 150 μM” value in data set [1] (listed as CB3) worked out at 0.68 µg/mL (≈ 1.37 µM). Moreover, the “IC50 ADP 5 μM” value in data set [2] (listed as CB3) came to 0.29 µg/mL (≈ 0.586 µM). Besides, the “IC50 Collagen 10 μg/ml” value in data set [3] (listed as CB3) was found to be 0.053 µg/mL (≈ 0.107 µM).

Regarding `CC1OC(OC2CCC(OC3CCC(OC(=O)c4ccc(Cl)cc4)OC3C)OC2C)CCC1=O` (stereo not shown) [SEN-366-CB4], the “IC50 AA 150 μM” value in data set [1] (listed as CB4) was over 5 µg/mL. Moreover, the “IC50 ADP 5 μM” value in data set [2] (listed as CB4) was 4.2 µg/mL (≈ 8.45 µM). The “IC50 Collagen 10 μg/ml” value in data set [3] (listed as CB4) came out at 1.7 µg/mL (≈ 3.42 µM).

Take `CCOC1CCC(OC2CCC(OC3C=CC(=O)C(C)O3)C(C)O2)C(C)O1` (stereo not shown) [SEN-366-E1]: the figures for the IC50 in data set [1] (Table 2) and in data set [2] (Table 2) were 10.3 µg/mL (≈ 26.8 µM) and 7.2 µg/mL (≈ 18.7 µM), respectively. Further, the “IC50 Collagen 10 μg/ml” value in data set [3] (listed as E1) stood at 2.0 µg/mL (≈ 5.2 µM).

In the case of `CCOC1CCC(OC2CCC(OC3CCC(=O)C(C)O3)C(C)O2)C(C)O1` (stereo not shown) [SEN-366-E2], the IC50 in data set [1] (Table 2) is 52 µg/mL (≈ 135 µM); in data set [2] (Table 2) it was over 100 µg/mL; in data set [3] (Table 2), 22.1 µg/mL (≈ 57.2 µM).

For `CCOC1CCC(OC2CCC(OC3C=CC(=O)C(C)O3)C(C)O2)C(C)O1` (stereo not shown) [SEN-366-E3], in data set [1] (listed as E3), the “IC50 AA 150 μM” value came out at 14.0 µg/mL (≈ 36.4 µM). Further, in data set [2] (listed as E3), the “IC50 ADP 5 μM” value worked out at 12.4 µg/mL (≈ 32.3 µM). For the same molecule, the “IC50 Collagen 10 μg/ml” value in data set [3] (listed as E3) was determined as 4.4 µg/mL (≈ 11.4 µM).

Consider `CCOC1CCC(OC2CCC(OC3CCC(=O)C(C)O3)C(C)O2)C(C)O1` (stereo not shown) [SEN-366-E4], for which, in data set [1] (listed as E4), the “IC50 AA 150 μM” value was 65.0 µg/mL (≈ 168 µM). Besides, the “IC50 ADP 5 μM” value in data set [2] is over 100 µg/mL. Moreover, the “IC50 Collagen 10 μg/ml” value in data set [3] (listed as E4) is 16.5 µg/mL (≈ 42.7 µM).

`CC1OC(OC2CCC(O)OC2C)C=CC1=O` (stereo not shown) [SEN-366-F0]: the results for the IC50 in data set [1] (Table 3), in data set [2] (Table 3) and in data set [3] (Table 3) were 3.4 µg/mL (≈ 14 µM), 9.3 µg/mL (≈ 38.4 µM) and 1.5 µg/mL (≈ 6.19 µM), respectively.

As for `CC1OC(OC2CCC(OC3CCC(=O)OC3C)OC2C)C=CC1=O` (stereo not shown) [SEN-366-L1], the IC50 in data set [1] (Table 2) is 27 µg/mL (≈ 76.2 µM); in data set [2] (Table 2) it was 12 µg/mL (≈ 33.9 µM); in data set [3] (Table 2), 5 µg/mL (≈ 14.1 µM).

In the case of `COC1CCC(OC2CCC(OC3C=CC(=O)C(C)O3)C(C)O2)C(C)O1` (stereo not shown) [SEN-366-M1], the IC50 in data set [1] (Table 2) is 29 µg/mL (≈ 78.3 µM); in data set [2] (Table 2), 17 µg/mL (≈ 45.9 µM); in data set [3] (Table 2) it was 5.5 µg/mL (≈ 14.8 µM).

As to `COC1CCC(OC2CCC(OC3CCC(=O)C(C)O3)C(C)O2)C(C)O1` (stereo not shown) [SEN-366-M2], the IC50 in data set [1] (Table 2) was 42 µg/mL (≈ 113 µM); in data set [2] (Table 2) it was 55 µg/mL (≈ 148 µM); in data set [3] (Table 2) it was 16.3 µg/mL (≈ 43.8 µM).

For `COC1CCC(OC2CCC(OC3C=CC(=O)C(C)O3)C(C)O2)C(C)O1` (stereo not shown) [SEN-366-M3], in data set [1] (listed as M3), the “IC50 AA 150 μM” value stood at 25.0 µg/mL (≈ 67.5 µM). Further, the “IC50 ADP 5 μM” value in data set [2] (listed as M3) is 15.0 µg/mL (≈ 40.5 µM). Besides, in data set [3] (listed as M3), the “IC50 Collagen 10 μg/ml” value was 5.2 µg/mL (≈ 14 µM).

With `COC1CCC(OC2CCC(OC3CCC(=O)C(C)O3)C(C)O2)C(C)O1` (stereo not shown) [SEN-366-M4], the “IC50 AA 150 μM” value in data set [1] (listed as M4) was 47.0 µg/mL (≈ 126 µM). The “IC50 ADP 5 μM” value in data set [2] (listed as M4) is 53.0 µg/mL (≈ 142 µM). For the same molecule, the “IC50 Collagen 10 μg/ml” value in data set [3] (listed as M4) was determined as 18.0 µg/mL (≈ 48.3 µM).

With `CC1OC(OC2CCC(OC3CCC(O)OC3C)OC2C)C(O)CC1=O` (stereo not shown) [SEN-366-P], the IC50 in data set [1] (Table 1) was found to be 25 µg/mL (≈ 66.8 µM); in data set [2] (Table 1) it was 4.4 µg/mL (≈ 11.8 µM); in data set [3] (Table 1), 1.6 µg/mL (≈ 4.27 µM). For the same molecule, in data set [4], the Solubility entry is “Soluble in water, methanol, ethanol, chloroform, acetone and ethyl acetate; also recorded: hardly soluble in petroleum ether and n-hexane”.

The values above are taken from US4751217A, “Physiologically active substances named SEN-366” (Nippon Shinyaku Co., Ltd., priority 1984, dated 1988).
